# Results published in US6479540B1, “Compositions of tocol-soluble therapeutics” (Sonus Pharmaceuticals, Inc., priority 1999, dated 2002).
# Counter-ions that a name gives are not always drawn.
# How the values were obtained:
# Type in all cases: physicochemical
# [1] = Release rate by dialysis in a diffusion chamber model; conditions: against 20% glycerol, 3% Poloxamer 407, pH 7.4, 37° C.
# Experimental: Amiodarone HCl and a tocol emulsion containing amiodarone and tocopherol phosphate as a tocol-soluble binary ion pair, prepared as mentioned above, were dialyzed against 20% glycerol, 3% Poloxamer 407 at pH 7.4 and 37° C.
# The rate of free or complexed drug exiting the dialysis chamber provides an indirect estimate of the “sustained release” properties of the emulsion and the strength of the ion pair species.
# [2] = Solubility of clarithromycin in tocopherol oil phase (crystals on cooling)
# Experimental: Clarithromycin was obtained as the free base from Wockhardt (Delhi, India). Vitamin E Succinate (VESA) was obtained from Eastman (Freeport Tenn.). Capmul® MCM was obtained from Abitec (Janesville Wis.); Poloxamer® 407 (Pluronic® F-127) from BASF (Parsippany N.J.); PEG-400 from Spectrum Chemicals (Gardenia Calif.), and d-δ-tocopherol from Sigma Chemicals (St Louis MO). An oil phase consisting of d-δ-tocopherol and Capmul MCM was prepared using 2 parts of δ-tocopherol. Dry ethanol was used to dissolve the components at 70° C. and the ethanol was then removed under vacuum. […] A tocol-soluble ion pair of this compound was then produced by addition of a stoichiometric equivalent of Vitamin E succinate (VESA) as the free acid. […] The clarithromycin was now sufficiently soluble in the tocopherol oil to allow subsequent preparation of the emulsion. The oil was then re-heated to 45° C. and degassed immediately prior to emulsification as described below.
# [3] = Erythromycin solubility in oils
# [4] = Doxorubicin ion pair solubility in vitamin E and emulsification; conditions: ion pair with vitamin E phosphate free acid at 2:1 molar ratio
# Excerpt: A fine emulsion can be prepared using high pressure homogenization to reduce particle size.
structure (smiles),measurement,setting,value
CCCCc1oc2ccccc2c1C(=O)c1cc(I)c(OCCN(CC)CC)c(I)c1 [Amiodarone HCl],Rate of dialysis / diffusion out of the dialysis chamber,[1],linear with concentration
CC[C@H]1OC(=O)[C@H](C)[C@@H](O[C@H]2C[C@@](C)(OC)[C@@H](O)[C@H](C)O2)[C@H](C)[C@@H](O[C@@H]2O[C@H](C)C[C@H](N(C)C)[C@H]2O)[C@](C)(OC)C[C@@H](C)C(=O)[C@H](C)[C@@H](O)[C@]1(C)O [Clarithromycin],Crystallization upon cooling of the oil,"[2]; after addition of a stoichiometric equivalent of Vitamin E succinate (free acid), re-dissolution in ethanol and cooling",no crystals formed
same,Crystallization upon cooling of the oil,"[2]; d-δ-tocopherol/Capmul MCM oil phase with surfactant, ethanol removed, without Vitamin E succinate",crystals of clarithromycin were observed
CC[C@H]1OC(=O)[C@H](C)[C@@H](O[C@H]2C[C@@](C)(OC)[C@@H](O)[C@H](C)O2)[C@H](C)[C@@H](O[C@@H]2O[C@H](C)C[C@H](N(C)C)[C@H]2O)[C@](C)(O)C[C@@H](C)C(=O)[C@H](C)[C@@H](O)[C@]1(C)O [Erythromycin],solubility in medium-chain triglycerides (MCT),[3]; MCT,~4 % w/w
same,solubility in α-tocopherol,[3]; α-tocopherol,approximately 10 % w/w
"COc1cccc2c1C(=O)c1c(O)c3c(c(O)c1C2=O)C[C@@](O)(C(=O)CO)C[C@@H]3O[C@H]1C[C@H](N)[C@H](O)[C@H](C)O1 [doxorubicin free base, Doxorubicin]",Solubility of ion pair in vitamin E,[4],soluble in vitamin E
